# Laboratory results taken from publication PMC11093748, “De novo identification of CD4^+ T cell epitopes” (Nature Methods, 2024).
# Assays:
# TCR15 = experiment: Single SABR-II co-incubation, NFAT-GFP Jurkat; assay type: cell-based, mouse; conditions: TCR 15, Fig 3B, 18 h
# Procedure, shortened: (§1)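 Single SABR-II constructs for putative cognate epitopes were expressed in CellTrace Violet-labelled NFAT–GFP Jurkat cells and co-incubated 1:1 (5 × 10^5 each) with TCR-expressing Jurkat cells for 16–20 h. GFP (with CD69 staining when indicated) was measured by flow cytometry. Wells with GFP above the no-TCR control were scored positive.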
# GSE.20D11 TCR = experiment: Single SABR-II co-incubation, NFAT-GFP Jurkat (HLA-DQ8); assay type: cell-based, human; conditions: HLA-DQ8 SABR-II
# Text: (§2) We have previously described SABRs, which are chimeric receptors containing an extracellular pMHC complex attached to an intracellular CD28-CD3ζ signaling domain. […] We sought to expand this platform to allow antigen discovery for MHC/HLA-II with seamless integration with class I alleles. Here, we created SABRs to present epitopes in MHC-II alleles, by covalently linking the epitope to the β-chain of MHC-II that is attached to the CD28-CD3ζ signaling domains downstream, along with a 2A peptide-linked MHC-II α-chain (Fig. 1a,b). To test whether SABR-IIs could present epitopes to TCRs and induce a signal, we expressed them using lentiviral vectors in NFAT–GFP Jurkat cells, which express green fluorescent protein (GFP) upon NFAT activation and translocation downstream of CD3ζ activation (a kind gift from Y. Chen and A. Weiss). We constructed murine SABR-IIs presenting epitopes in I-Ab, I-Ad and I-Ag7 (Ova, […][41]; ATEG, […][42]; and 2.5mimo, […][43], respectively). We co-incubated the SABR-II-expressing NFAT–GFP Jurkat cells with a separate population of Jurkat cells expressing either the BDC2.5 TCR (recognizes I-Ag7-2.5mimo), OT-II TCR (recognizes I-Ab-Ova), 5-4-E8 TCR (recognizes I-Ad-ATEG) or no TCR. […] The signal from the NFAT–GFP reporter offered minimal background in absence of a cognate TCR and correlated with surface SABR expression in the presence of a cognate TCR (Extended Data Fig. 1c–e). […] We confirmed the ability of the DQ8-InsB9:23 SABR-II to present the epitope to two previously described, T1D patient-derived TCRs GSE.6H9 and GSE.20D11 (ref. [46]).
# (§3) For SABR library screens, 3 × 10^6 NFAT–GFP Jurkat cells expressing the SABR library were labeled with CellTrace Violet (BioLegend) according to the manufacturer’s protocol before incubation with 3 × 10^6 Jurkat cells expressing the TCR of interest. These mixtures were incubated in a six-well plate for 16–20 h. Cells were stained with anti-CD69-APC-Cy7 where indicated (BioLegend) and the top 1–2% of GFP^+CD69^+ cells were sorted for genomic DNA extraction, indexing and sequencing (see below). Multiplexed assays were scaled on a per-TCR basis (for example 3 × 10^6 for each of three TCRs against 9 × 10^6 library cells). For single SABR assays, unless otherwise defined, 5 × 10^5 SABR expressing NFAT–GFP Jurkat cells (or 5KC cells) were labeled with CellTrace Violet (BioLegend) according to the manufacturer’s protocol before incubation with 5 × 10^5 TCR-expressing Jurkat cells (or 5KC cells) in a round-bottom 96-well plate for 16–20 h. Cells were stained with anti-CD69-APC-Cy7 when indicated and acquired on the Attune NxT flow cytometer (Thermo Fisher Scientific). All flow analysis was performed using FlowJo (BD). For Daudi cell co-culture, 1 × 10^6 Jurkat cells expressing the TCR of interest were incubated with 1 × 10^6 Daudi cells expressing a SABR of interest for 3 days. On day 3, cells were labeled with anti-RT1B-PE and anti-Fas-APC-Cy7 before being acquired on the Attune NxT flow cytometer.
# GSE.6H9 TCR = experiment: as above; assay type: cell-based, human; conditions: HLA-DQ8 SABR-II
# Text: as §2, §3
# TCR30 = experiment: Single SABR-II co-incubation, NFAT-GFP Jurkat; assay type: cell-based, mouse; conditions: TCR 30
# Procedure, shortened: as §1
# TCR37 = experiment: Single SABR-II co-incubation, NFAT-GFP Jurkat; assay type: cell-based, mouse; conditions: TCR 37, Fig 3B, 18 h
# Procedure, shortened: as §1
Sequence,%GFP+CD69+ cells of SABR-NFAT-GFP-Jurkat cells (TCR15; biological replicate 1) [%],%GFP+CD69+ cells of SABR-NFAT-GFP-Jurkat cells (TCR15; biological replicate 2) [%],%GFP+CD69+ cells of SABR-NFAT-GFP-Jurkat cells (TCR15; biological replicate 3) [%],frequency of GFP+CD69+ cells (in words) (GSE.20D11 TCR),frequency of GFP+CD69+ cells (in words) (GSE.6H9 TCR),"%GFP+CD69+ cells of SABR-NFAT-GFP-Jurkat cells (TCR30; Fig 3B, 18 h, biological replicate 1) [%]","%GFP+CD69+ cells of SABR-NFAT-GFP-Jurkat cells (TCR30; Fig 3B, 18 h, biological replicate 2) [%]","%GFP+CD69+ cells of SABR-NFAT-GFP-Jurkat cells (TCR30; Fig 3B, 18 h, biological replicate 3) [%]","%GFP+CD69+ cells of SABR-NFAT-GFP-Jurkat cells (TCR30; Fig 4B, replicate 1) [%]","%GFP+CD69+ cells of SABR-NFAT-GFP-Jurkat cells (TCR30; Fig 4B, replicate 2) [%]","%GFP+CD69+ cells of SABR-NFAT-GFP-Jurkat cells (TCR30; Fig 4B, replicate 3) [%]",%GFP+CD69+ cells of SABR-NFAT-GFP-Jurkat cells (TCR37; biological replicate 1) [%],%GFP+CD69+ cells of SABR-NFAT-GFP-Jurkat cells (TCR37; biological replicate 2) [%],%GFP+CD69+ cells of SABR-NFAT-GFP-Jurkat cells (TCR37; biological replicate 3) [%]
LQTLALNAARDP,39.97,41.2,48.23,–,–,–,–,–,–,–,–,–,–,–
SHLVEALYLVCGERG,–,–,–,high frequency of GFP^+CD69^+ cells,high frequency of GFP^+CD69^+ cells,5.68,7.14,5.4,3.98,3.65,3.27,31.07,38.77,34.13
